Like-named read-outs stand apart in the source and are kept apart here.
How the values were obtained:
[1] = UV-Vis absorption spectra in MeOH; type: physicochemical
Protocol: (§1) The absorption spectra of (oxidopyridyl)porphyrins were recorded in HPLC grade MeOH on a Cary UV 60 (Agilent Technologies, Santa Clara, CA, USA), in a wavelength range of 300–700 nm. The fluorescence spectra in HPLC grade MeOH were recorded on a Cary Eclipse (Agilent Technologies) in a wavelength range of 500–800 nm after excitation at the Soret band wavelength (λ ~ 420 nm). The slits of the spectrometer were set to a bandpass of 5 nm for the excitation and 5 nm for the emission. To calculate the fluorescence quantum yields, the measurements were conducted on an FS5 Edinburgh Instruments spectrometer. Prior to taking the measurements, the solutions were purged with high-purity N2 for at least 15 min. The absorbance of the solutions was set to A < 0.1 at 405 nm and 550 nm, which settings were used for the excitation process. Emission was recorded from 550 to 800 nm, with slits set to the bandpass corresponding to 2 nm for the excitation, and 3 nm for the emission. Fluorescence quantum yield (ΦFL) was calculated in comparison to the tetraphenylporphyrin (TPP; ΦFL = 0.11 [23]) as a standard, according to Equation (S1) and following an equation previously described elsewhere.

[2] = system: HDF; assay: Photocytotoxicity, MTT assay; type: cell-based, human; conditions: 6 h incubation, red light 643 nm 30 min
Protocol: (§2) For (photo)cytotoxicity assays, stock solutions of porphyrins were prepared in DMSO and dissolved in DMEM to the final concentrations. The porphyrin incubation time was 6h. Irradiation of the cells was with red light (λ = 643 nm) for 30 min (light dose, 3.6 J/cm^2). Nonirradiated cells were used to test the dark toxicity. All measurements were performed in three individual experiments, and the results are shown as the proliferation (%) of the cells and were calculated as IC50 values.
(§3) The cytotoxicity of (oxidopyridyl)porphyrins was assessed by an MTT assay on the HDF, MeWo and A375 cell lines after 6 h of incubation with porphyrins, without irradiation, or after 30 min of irradiation with red light (λ = 643 nm), and under conditions of normoxia or hypoxia. To induce hypoxia, 100 µM of CoCl2 was added at least two hours before the porphyrins. […] Oxygen is also one of the substrates for the activity of prolyl hydroxylases; therefore, in both cases, the result is the blockage of hydroxylation of HIF-1α and, consequently, its increase and stabilisation, which, in the case of CoCl2-induced hypoxia, can be maintained for several hours.

[3] = system: A375; assay: Photocytotoxicity, MTT assay; type: cell-based, human; conditions: red light 643 nm 30 min; for IC50: 6 h incubation; for SI (IC50 (HDF) / IC50 (melanoma cells)) A375 100 µM CoCl2: CoCl2-induced hypoxia; for SI (IC50 (HDF) / IC50 (melanoma cells)) A375 No CoCl2: normoxia
Protocol: as §2, §3

[4] = system: MeWo; assay: Photocytotoxicity, MTT assay; type: cell-based, human; conditions: red light 643 nm 30 min; for IC50: 6 h incubation; for SI (IC50 (HDF) / IC50 (melanoma cells)) MeWo 100 µM CoCl2: CoCl2-induced hypoxia; for SI (IC50 (HDF) / IC50 (melanoma cells)) MeWo No CoCl2: normoxia
Protocol: as §2, §3

[5] = system: HDF, MeWo and A375 cell lines; assay: (Photo)cytotoxicity MTT assay, statements made for all cell lines; type: cell-based, human; conditions: irradiation 643 nm
Protocol: as §2, §3

[6] = Fluorescence spectra and fluorescence quantum yield in MeOH; type: physicochemical; conditions: excitation at Soret band
Protocol: as §1

[7] = Homo sapiens, HDF, light or radiation study, 3.6 J/cm^2, 100 μM CoCl2 at least 2 h before porphyrin, read-out: IC50 HDF CoCl2
[8] = Homo sapiens, HDF, light or radiation study, 3.6 J/cm^2, normoxia, read-out: IC50 HDF No CoCl2
[9] = Homo sapiens, A-375, light or radiation study, 3.6 J/cm^2, 100 μM CoCl2 at least 2 h before porphyrin, read-out: IC50 A375 CoCl2
[10] = Homo sapiens, A-375, light or radiation study, 3.6 J/cm^2, normoxia, read-out: IC50 A375 No CoCl2
[11] = Homo sapiens, MeWo, light or radiation study, 3.6 J/cm^2, 100 μM CoCl2 at least 2 h before porphyrin, read-out: IC50 MeWo CoCl2
[12] = Homo sapiens, MeWo, light or radiation study, 3.6 J/cm^2, normoxia, read-out: IC50 MeWo No CoCl2
[13] = 3.6 J/cm^2, 100 μM CoCl2 at least 2 h before porphyrin, read-out: IC50 HDF CoCl2
[14] = 3.6 J/cm^2, normoxia, read-out: IC50 HDF No CoCl2
[15] = 3.6 J/cm^2, 100 μM CoCl2 at least 2 h before porphyrin, read-out: IC50 A375 CoCl2
[16] = 3.6 J/cm^2, normoxia, read-out: IC50 A375 No CoCl2
[17] = 3.6 J/cm^2, 100 μM CoCl2 at least 2 h before porphyrin, read-out: IC50 MeWo CoCl2
[18] = 3.6 J/cm^2, normoxia, read-out: IC50 MeWo No CoCl2

Row | ε Qx (0-0) [1] [M⁻¹ cm⁻¹] | ε Qx (1-0) [1] [M⁻¹ cm⁻¹] | ε Qy (0-0) [1] [M⁻¹ cm⁻¹] | ε Qy (1-0) [1] [M⁻¹ cm⁻¹] | ε Soret (B) [1] [M⁻¹ cm⁻¹] | λabs Qx (0-0) [1] [nm] | λabs Qx (1-0) [1] [nm] | λabs Qy (0-0) [1] [nm] | λabs Qy (1-0) [1] [nm] | λabs Soret (B) [1] [nm] | Structure (SMILES) | IC50 [2, 7] [µM] | IC50 [2, 8] [µM] | IC50 [3, 9] [µM] | IC50 [3, 10] [µM] | SI (IC50 (HDF) / IC50 (melanoma cells)) A375 100 µM CoCl2 [3] | SI (IC50 (HDF) / IC50 (melanoma cells)) A375 No CoCl2 [3] | IC50 [4, 11] [µM] | IC50 [4, 12] [µM] | SI (IC50 (HDF) / IC50 (melanoma cells)) MeWo 100 µM CoCl2 [4] | SI (IC50 (HDF) / IC50 (melanoma cells)) MeWo No CoCl2 [4] | also measured
1 | 1500 | 4900 | 5100 | 15400 | 296400 | 645 | 588 | 548 | 512 | 417 | CCCCCCCCCC(=O)Nc1ccc(-c2c3nc(c(-c4ccc[n+]([O-])c4)c4ccc([nH]4)c(-c4ccc[n+]([O-])c4)c4nc(c(-c5ccc[n+]([O-])c5)c5ccc2[nH]5)C=C4)C=C3)cc1 [TOPyP3-C9H19, 5-(4-Decanamidophenyl)-10,15,20-tris(1-oxido-3-pyridyl)porphyrin] | 7.65 ± 0.06 | 3.49 ± 0.45 | 5.46 ± 1.48 | 3.87 ± 0.45 | 1.4 | 0.9 | 6.28 ± 0.82 | 5.46 ± 1.08 | 1.2 | 0.6 | phototoxicity / reduction of proliferation at 1 µM ([5]; 1 µM, normoxia or CoCl2-induced hypoxia): very low; λFL Q(0,0) [6]: 648 nm; λFL Q(0,1) [6]: 713 nm
2 |  |  |  |  |  |  |  |  |  |  | CCCCCCCCCCCCCC(=O)Nc1ccc(-c2c3nc(c(-c4ccc[n+](C)c4)c4ccc([nH]4)c(-c4ccc[n+](C)c4)c4nc(c(-c5ccc[n+](C)c5)c5ccc2[nH]5)C=C4)C=C3)cc1 [TMPyP3-C13H27] |  |  |  |  | 4.5 | 5.4 |  |  | 1.6 | 1.9 | IC50 [2, 13]: 0.99 ± 0.05 µM; IC50 [2, 14]: 0.81 ± 0.05 µM; IC50 [3, 15]: 0.22 ± 0.08 µM; IC50 [3, 16]: 0.15 ± 0.06 µM; IC50 [4, 17]: 0.61 ± 0.16 µM; IC50 [4, 18]: 0.43 ± 0.03 µM; IC50 ([5]; with or without CoCl2, read-out: IC50 in all the tested cells): ≤ 1 µM
3 |  |  |  |  |  |  |  |  |  |  | CCCCCCCCCC(=O)Nc1ccc(-c2c3nc(c(-c4ccc[n+](C)c4)c4ccc([nH]4)c(-c4ccc[n+](C)c4)c4nc(c(-c5ccc[n+](C)c5)c5ccc2[nH]5)C=C4)C=C3)cc1 [TMPyP3-C9H19] |  |  |  |  | 9.0 | 10.6 |  |  | 1.3 | 2.0 | IC50 [2, 13]: 8.87 ± 0.02 µM; IC50 [2, 14]: 7.09 ± 0.66 µM; IC50 [3, 15]: 0.99 ± 0.13 µM; IC50 [3, 16]: 0.67 ± 0.03 µM; IC50 [4, 17]: 6.81 ± 1.36 µM; IC50 [4, 18]: 3.52 ± 0.65 µM
4 | 2000 | 6000 | 5800 | 19300 | 364600 | 646 | 588 | 547 | 512 | 417 | CCCCCCCCCCCCCC(=O)Nc1ccc(-c2c3nc(c(-c4ccc[n+]([O-])c4)c4ccc([nH]4)c(-c4ccc[n+]([O-])c4)c4nc(c(-c5ccc[n+]([O-])c5)c5ccc2[nH]5)C=C4)C=C3)cc1 [TOPyP3-C13H27, 5-(4-Tetradecanamidophenyl)-10,15,20-tris(1-oxido-3-pyridyl)porphyrin] | 2.62 ± 0.19 | 0.86 ± 0.04 | 0.86 ± 0.06 | 0.78 ± 0.17 | 3.0 | 1.1 | 1.79 ± 0.37 | 1.04 ± 0.09 | 1.5 | 0.8 | λFL Q(0,0) [6]: 648 nm; λFL Q(0,1) [6]: 713 nm
